The source of these data is patent publication US20260070945A1, “MACROCYCLIC IMMUNOMODULATORS” (Bristol-Myers Squibb Company, priority 2022, published 2026).

pIC50: −log10 of the molar value. *1 amine or outer side, *2 acyl side, *3 side chain or, on linkers, in order; H or OH if unused. Where a SMILES comes first, the peptide text is derived from it. Bridges are numbered along the chain shown (N, C = ends). [ ]: non-standard residue; d: D form. The star is where a group is joined. ξ: configuration not given here. X5 = O=C([C@H](Cc1ccc(-c2cc(F)c(F)c(F)c2)cc1)N[*:1])[*:2]; Phe(3-CF3) = N[C@@H](Cc1cccc(C(F)(F)F)c1)C(=O)O; Phe(4-COOH) = N[C@@H](Cc1ccc(C(=O)O)cc1)C(=O)O; Bip = N[C@@H](Cc1ccc(-c2ccccc2)cc1)C(=O)O; Phe(3-Me) = Cc1cccc(C[C@H](N)C(=O)O)c1; Abu(3S-NH2) = C[C@H](N)[C@H](N)C(=O)O; NH(CH2)12COOH = O=C(O)CCCCCCCCCCCCN*; Val(3-OH) = CC(C)(O)[C@H](N)C(=O)O; 4Pal = N[C@@H](Cc1ccncc1)C(=O)O; Cha = N[C@@H](CC1CCCCC1)C(=O)O; Cit = NC(=O)NCCC[C@H](N)C(=O)O; Ile(3ξ) = CCC(C)[C@H](N)C(=O)O; Thr(3ξ) = CC(O)[C@H](N)C(=O)O; NMeNle = CCCC[C@H](NC)C(=O)O; 12Ado = NCCCCCCCCCCCC(=O)O; Carboxymethyl = O=C(O)C*; NMeA = CN[C@@H](C)C(=O)O; Orn = NCCC[C@H](N)C(=O)O; dDap = NC[C@@H](N)C(=O)O; Aun = NCCCCCCCCCCC(=O)O; Dab = NCC[C@H](N)C(=O)O; AEEA = NCCOCCOCC(=O)O

T1 sequence (Q15116 25-288): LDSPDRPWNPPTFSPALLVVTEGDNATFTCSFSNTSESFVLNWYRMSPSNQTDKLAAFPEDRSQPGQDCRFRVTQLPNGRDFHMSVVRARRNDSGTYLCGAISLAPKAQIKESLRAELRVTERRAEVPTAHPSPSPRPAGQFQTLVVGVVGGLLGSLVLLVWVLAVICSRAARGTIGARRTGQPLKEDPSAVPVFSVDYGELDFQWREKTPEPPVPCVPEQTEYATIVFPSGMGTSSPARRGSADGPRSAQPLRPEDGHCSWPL

One assay concerns the target T1, PD-1/PD-L1 interaction (PE-labeled human PD-L1-Ig binding to Jurkat cell line over-expressing human PD-1) (Homo sapiens, UniProt Q15116).
T1 construct: expressed in transfected cells; host or cells: Jurkat
The assay is described as follows: Jurkat-PD-1 Cell Binding High-Content Screening Assay (CBA). As to conditions: Jurkat-hPD-1 cells, PE-labeled PD-L1-Ig 20 nM final; read-out: Jurkat HPD1 PDL1 IC50. In a few lines: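 Jurkat-hPD-1 cells (8×10^3/well) in DMEM with 10% fetal calf serum were preincubated with compound for 2 h at 37 °C. PE-labeled PD-L1-Ig was then added at 20 nM final for 1 h. Cells were fixed in paraformaldehyde with Hoechst 33342, washed and imaged by high-content imaging.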
Broadly, the pIC50 is the IC50 on a negative log10 scale, so that one unit is a factor of ten. Regarding `Cc1cccc(C[C@@H]2NC(=O)[C@H](CC(=O)O)NC(=O)[C@H](Cc3ccc(OCC(=O)O)cc3)NC(=O)[C@H](C(C)O)NC(=O)CSC[C@@H](C(=O)N[C@@H](CCN)C(=O)NCCCCCCCCCCC(=O)O)NC(=O)[C@H](C(C)O)NC(=O)[C@H](C(C)C)NC(=O)[C@H](CC3CCCCC3)NC(=O)[C@H](CCN)NC(=O)[C@@H](CC(C)C)NC(=O)[C@H](C)N(C)C(=O)[C@H](Cc3ccc(OCC(=O)O)cc3)NC(=O)[C@H](Cc3ccc(-c4ccccc4)cc3)NC(=O)[C@H](CCCNC(N)=O)NC2=O)c1` (stereo partly drawn) [Example 2354] ({CH2CO}-[Thr(3ξ)]Y(Carboxymethyl)D[Phe(3-Me)][Cit][Bip]Y(Carboxymethyl)[NMeA][dL][Dab][Cha]V[Thr(3ξ)]C[Dab][Aun]-OH; thioether N-14), the pIC50 was 7.67.
`CC(C)C[C@H]1NC(=O)[C@H](C)N(C)C(=O)[C@H](CCC(N)=O)NC(=O)[C@H](Cc2ccc(-c3ccccc3)cc2)NC(=O)[C@H](Cc2ccc(C(=O)O)cc2)NC(=O)[C@H](Cc2cccc(C(F)(F)F)c2)NC(=O)[C@H](CC(=O)O)NC(=O)[C@H](Cc2ccc(OCC(=O)O)cc2)NC(=O)[C@H]([C@H](C)N)NC(=O)CSC[C@@H](C(=O)N[C@@H](CCN)C(=O)NCCCCCCCCCCCCC(=O)O)NC(=O)[C@H](CO)NC(=O)[C@H](C(C)(C)O)NC(=O)[C@H](CC2CCCCC2)NC(=O)[C@H](CCN)NC1=O` [Example 1190] ({CH2CO}-[Abu(3S-NH2)]Y(Carboxymethyl)D[Phe(3-CF3)][Phe(4-COOH)][Bip]Q[NMeA][dL][Dab][Cha][Val(3-OH)]SC[Dab]-{NH(CH2)12COOH}; thioether N-14): the pIC50 is 7.74.
Still for that read-out and setting: the result for `CCC(C)[C@@H]1NC(=O)[C@H](Cc2ccc(-c3ccccc3)cc2)NC(=O)[C@H](C(C)C)NC(=O)[C@H](Cc2c[nH]c3ccccc23)NC(=O)[C@H](CC(=O)O)NC(=O)[C@H](Cc2ccc(O)cc2)NC(=O)[C@H](Cc2ccncc2)NC(=O)CSC[C@@H](C(=O)N[C@H](CN)C(=O)NCCOCCOCC(=O)NCCCCCCCCCCC(=O)O)NC(=O)[C@H](C(C)O)NC(=O)[C@H](C(C)C)NC(=O)[C@H](CC2CCCCC2)NC(=O)[C@H](CCN)NC(=O)[C@@H](CC(C)C)NC(=O)[C@H](C)N(C)C1=O` (stereo partly drawn) [Example 2071] ({CH2CO}-[4Pal]YDWV[Bip][Ile(3ξ)][NMeA][dL][Dab][Cha]V[Thr(3ξ)]C[dDap][AEEA][Aun]-OH; thioether N-14) reads 7.69; that for `Cc1cccc(C[C@@H]2NC(=O)[C@H](CC(=O)O)NC(=O)[C@H](Cc3ccc(C(=O)O)cc3)NC(=O)[C@H](Cc3ccc(OCC(=O)O)cc3)NC(=O)CSC[C@@H](C(=O)N[C@@H](CCC(=O)O)C(=O)NCCCCCCCCCCC(=O)O)NC(=O)[C@H](CO)NC(=O)[C@H](C(C)C)NC(=O)[C@H](CC(C)C)NC(=O)[C@H](CC(N)=O)NC(=O)[C@@H](CC(C)C)NC(=O)[C@H](C)N(C)C(=O)[C@H](C(C)C)NC(=O)[C@H](Cc3ccc(-c4ccccc4)cc3)NC(=O)[C@H](CC(C)C)NC2=O)c1` [Example 1003] ({CH2CO}-Y(Carboxymethyl)[Phe(4-COOH)]D[Phe(3-Me)]L[Bip]V[NMeA][dL]NLVSCE[Aun]-OH; thioether N-14), 7.70; that for `CC(C)C[C@@H]1NC(=O)[C@H](Cc2c[nH]c3ccccc23)NC(=O)[C@H](CC(=O)O)NC(=O)[C@H](Cc2ccncc2)NC(=O)[C@H](Cc2ccc(OCC(=O)O)cc2)NC(=O)CSC[C@@H](C(=O)N[C@@H](CCN)C(=O)NCCOCCOCC(=O)NCCCCCCCCCCC(=O)O)NC(=O)[C@H](CO)NC(=O)[C@H](C(C)C)NC(=O)[C@H](CC2CCCCC2)NC(=O)[C@H](CCN)NC(=O)[C@@H](CC(C)C)NC(=O)[C@H](C)N(C)C(=O)[C@H](C(C)C)NC(=O)[C@H](Cc2ccc(-c3ccccc3)cc2)NC1=O` [Example 1089] ({CH2CO}-Y(Carboxymethyl)[4Pal]DWL[Bip]V[NMeA][dL][Dab][Cha]VSC[Dab][AEEA][Aun]-OH; thioether N-14), 8.28.
On the same count and under the same terms, the result for `CC(C)C[C@@H]1NC(=O)[C@H](Cc2c[nH]c3ccccc23)NC(=O)[C@H](CC(=O)O)NC(=O)[C@H](Cc2ccncc2)NC(=O)[C@H](Cc2ccc(OCC(=O)O)cc2)NC(=O)CSC[C@@H](C(=O)N[C@@H](CCCN)C(=O)NCCCCCCCCCCC(=O)O)NC(=O)[C@H](CCC(=O)O)NC(=O)[C@H](C(C)C)NC(=O)[C@H](CC2CCCCC2)NC(=O)[C@H](CCN)NC(=O)[C@@H](CC(C)C)NC(=O)[C@H](C)N(C)C(=O)[C@H](C(C)C)NC(=O)[C@H](Cc2ccc(-c3ccccc3)cc2)NC1=O` [Example 1332] ({CH2CO}-Y(Carboxymethyl)[4Pal]DWL[Bip]V[NMeA][dL][Dab][Cha]VEC[Orn][Aun]-OH; thioether N-14) reads 7.84.
Take `CC(C)C[C@H]1NC(=O)[C@H](C)N(C)C(=O)[C@H](Cc2ccc(OCC(=O)O)cc2)NC(=O)[C@H](Cc2ccc(-c3cc(F)c(F)c(F)c3)cc2)NC(=O)[C@H](Cc2ccc(C(=O)O)cc2)NC(=O)[C@H](Cc2cccc(C(F)(F)F)c2)NC(=O)[C@H](CC(=O)O)NC(=O)[C@H](Cc2ccc(OCC(=O)O)cc2)NC(=O)[C@H]([C@@H](C)O)NC(=O)CSC[C@@H](C(=O)N[C@@H](CCN)C(=O)NCCCCCCCCCCC(=O)O)NC(=O)[C@H]([C@@H](C)O)NC(=O)[C@H](C(C)C)NC(=O)[C@H](CC2CCCCC2)NC(=O)[C@H](CCN)NC1=O` [Example 1237] ({CH2CO}-TY(Carboxymethyl)D[Phe(3-CF3)][Phe(4-COOH)][X5]Y(Carboxymethyl)[NMeA][dL][Dab][Cha]VTC[Dab][Aun]-OH; thioether N-14): the pIC50 was 6.74.
Regarding `CCCC[C@H]1C(=O)N[C@H](CC(C)C)C(=O)N[C@@H](CCN)C(=O)N[C@@H](CC2CCCCC2)C(=O)N[C@@H](C(C)C)C(=O)N[C@@H](C(C)O)C(=O)N[C@H](C(=O)N[C@@H](CCCCN)C(=O)NCCOCCOCC(=O)NCCCCCCCCCCC(=O)O)CSCC(=O)N[C@@H](Cc2ccncc2)C(=O)N[C@@H](Cc2ccc(OCC(=O)O)cc2)C(=O)N[C@@H](CC(=O)O)C(=O)N[C@@H](Cc2c[nH]c3ccccc23)C(=O)N[C@@H](C(C)C)C(=O)N[C@@H](Cc2ccc(-c3ccccc3)cc2)C(=O)N[C@@H](CC(C)C)C(=O)N1C` (stereo partly drawn) [Example 2115] ({CH2CO}-[4Pal]Y(Carboxymethyl)DWV[Bip]L[NMeNle][dL][Dab][Cha]V[Thr(3ξ)]CK[AEEA][Aun]-OH; thioether N-14), the negative logarithm of the IC50 (pIC50) was 6.57.
As for `CC(C)C[C@H]1NC(=O)[C@H](C)N(C)C(=O)[C@H](C(C)C)NC(=O)[C@H](Cc2ccc(-c3ccccc3)cc2)NC(=O)[C@H](C(C)C)NC(=O)[C@H](Cc2c[nH]c3ccccc23)NC(=O)[C@H](CC(=O)O)NC(=O)[C@H](Cc2ccc(OCC(=O)O)cc2)NC(=O)[C@H](CCCNC(=N)N)NC(=O)CSC[C@@H](C(=O)NCC(=O)NCCOCCOCC(=O)N[C@@H](CCCN)C(=O)NCCCCCCCCCCCC(=O)O)NC(=O)[C@H](CCCN)NC(=O)[C@H](C(C)C)NC(=O)[C@H](CC2CCCCC2)NC(=O)[C@H](CCN)NC1=O` [Example 2160] ({CH2CO}-RY(Carboxymethyl)DWV[Bip]V[NMeA][dL][Dab][Cha]V[Orn]CG[AEEA][Orn][12Ado]-OH; thioether N-14), the pIC50 is 7.91.
For `CC(C)C[C@@H]1NC(=O)[C@H](Cc2c[nH]c3ccccc23)NC(=O)[C@H](CC(=O)O)NC(=O)[C@H](Cc2ccc(OCC(=O)O)cc2)NC(=O)[C@H](Cc2ccccc2)NC(=O)CSC[C@@H](C(=O)N[C@@H](CCN)C(=O)NCCCCCCCCCCC(=O)O)NC(=O)[C@H](CCC(N)=O)NC(=O)[C@H](C(C)C)NC(=O)[C@H](CC(C)C)NC(=O)[C@H](CC(N)=O)NC(=O)[C@@H](CC(C)C)NC(=O)[C@H](C)N(C)C(=O)[C@H](C(C)C)NC(=O)[C@H](Cc2ccc(-c3ccccc3)cc2)NC1=O` [Example 1346] ({CH2CO}-FY(Carboxymethyl)DWL[Bip]V[NMeA][dL]NLVQC[Dab][Aun]-OH; thioether N-14), the pIC50 is 6.95.
Still for that read-out and setting: the result for `CCC(C)[C@@H]1NC(=O)[C@H](Cc2ccc(-c3ccccc3)cc2)NC(=O)[C@H](CC(C)C)NC(=O)[C@H](Cc2c[nH]c3ccccc23)NC(=O)[C@H](CC(=O)O)NC(=O)[C@H](Cc2ccc(O)cc2)NC(=O)[C@H](CC(N)=O)NC(=O)CSC[C@@H](C(=O)N[C@H](CC(N)=O)C(=O)NCCOCCOCC(=O)NCCCCCCCCCCC(=O)O)NC(=O)[C@H](CO)NC(=O)[C@H](C(C)C)NC(=O)[C@H](CC(C)C)NC(=O)[C@H](CCN)NC(=O)[C@@H](CC(C)C)NC(=O)[C@H](C)N(C)C1=O` (stereo partly drawn) [Example 2063] ({CH2CO}-NYDWL[Bip][Ile(3ξ)][NMeA][dL][Dab]LVSC[dN][AEEA][Aun]-OH; thioether N-14) reads 7.19.

Staying with this assay, now noted: PE-labeled PD-L1-Ig 20 nM final, Jurkat-hPD-1 cells; read-out: Jurkat HPD1 PDL1 IC50.
In the case of `Cc1cccc(C[C@@H]2NC(=O)[C@H](CC(=O)O)NC(=O)[C@H](Cc3ccc(OCC(=O)O)cc3)NC(=O)[C@H](C(C)O)NC(=O)CSC[C@@H](C(=O)N[C@@H](CO)C(=O)NCCOCCOCC(=O)NCCCCCCCCCCC(=O)O)NC(=O)[C@H](CCC(=O)O)NC(=O)[C@H](C(C)(C)O)NC(=O)[C@H](CC3CCCCC3)NC(=O)[C@H](CCN)NC(=O)[C@@H](CC(C)C)NC(=O)[C@H](C)N(C)C(=O)[C@H](Cc3ccc(OCC(=O)O)cc3)NC(=O)[C@H](Cc3ccc(-c4ccccc4)cc3)NC(=O)[C@H](Cc3ccc(OCC(=O)O)cc3)NC2=O)c1` (stereo partly drawn) [Example 2507] ({CH2CO}-[Thr(3ξ)]Y(Carboxymethyl)D[Phe(3-Me)]Y(Carboxymethyl)[Bip]Y(Carboxymethyl)[NMeA][dL][Dab][Cha][Val(3-OH)]ECS[AEEA][Aun]-OH; thioether N-14), the pIC50 was 6.41.
